Columns and labels:
[1] = system: CCRF-CEM; experiment: Growth inhibition of human CCRF-CEM cells assessed as cell growth at 0.01 uM incubated for 48 hrs by sulforhodamine B assay relative to control; format: functional; settings: read-out: Activity
[2] = system: A498; experiment: Growth inhibition of human A498 cells assessed as cell growth at 0.1 uM incubated for 48 hrs by sulforhodamine B assay relative to control; format: functional; settings: A498, 48 h, read-out: Activity
[3] = system: CAKI-1; experiment: Growth inhibition of human Caki1 cells incubated for 48 hrs by sulforhodamine B assay; format: functional, cell-based; settings: CAKI-1, 48 h
[4] = system: M14; experiment: Growth inhibition of human M14 cells assessed as cell growth at 1 uM incubated for 48 hrs by sulforhodamine B assay relative to control; format: functional; settings: M14, 48 h, read-out: Activity
[5] = system: MCF7; experiment: Growth inhibition of human MCF7 cells assessed as cell growth at 0.1 uM incubated for 48 hrs by sulforhodamine B assay relative to control; format: functional; settings: MCF7, 48 h, read-out: Activity
[6] = system: NCI/ADR-RES; experiment: Growth inhibition of human NCI/ADR-RES cells assessed as cell growth at 1 uM incubated for 48 hrs by sulforhodamine B assay relative to control; format: functional; settings: read-out: Activity
[7] = system: HCC 2998; experiment: Growth inhibition of human HCC2998 cells incubated for 48 hrs by sulforhodamine B assay; format: functional, cell-based; settings: HCC 2998, 48 h
[8] = system: HOP-62; experiment: Growth inhibition of human HOP62 cells assessed as cell growth at 1 uM incubated for 48 hrs by sulforhodamine B assay relative to control; format: functional; settings: HOP-62, 48 h, read-out: Activity
[9] = system: OVCAR-8; experiment: Growth inhibition of human OVCAR8 cells assessed as cell growth at 0.1 uM incubated for 48 hrs by sulforhodamine B assay relative to control; format: functional; settings: OVCAR-8, 48 h, read-out: Activity
[10] = system: HCC 2998; experiment: Growth inhibition of human HCC2998 cells assessed as cell growth at 1 uM incubated for 48 hrs by sulforhodamine B assay relative to control; format: functional; settings: HCC 2998, 48 h, read-out: Activity
[11] = system: UACC-257; experiment: Growth inhibition of human UACC257 cells assessed as cell growth at 0.01 uM incubated for 48 hrs by sulforhodamine B assay relative to control; format: functional; settings: UACC-257, 48 h, read-out: Activity
[12] = system: KM12; experiment: Growth inhibition of human KM12 cells assessed as cell growth at 1 uM incubated for 48 hrs by sulforhodamine B assay relative to control; format: functional; settings: KM12, 48 h, read-out: Activity
[13] = system: COLO 205; experiment: Growth inhibition of human COLO205 cells assessed as cell growth at 1 uM incubated for 48 hrs by sulforhodamine B assay relative to control; format: functional; settings: COLO 205, 48 h, read-out: Activity
[14] = system: SK-OV-3; experiment: Growth inhibition of human SKOV3 cells assessed as cell growth at 1 uM incubated for 48 hrs by sulforhodamine B assay relative to control; format: functional; settings: SK-OV-3, 48 h, read-out: Activity
[15] = system: A549; experiment: Growth inhibition of human A549/ATCC cells assessed as cell growth at 0.1 uM incubated for 48 hrs by sulforhodamine B assay relative to control; format: functional; settings: A549, 48 h, read-out: Activity
[16] = system: HOP-62; experiment: Growth inhibition of human HOP62 cells assessed as cell growth at 0.1 uM incubated for 48 hrs by sulforhodamine B assay relative to control; format: functional; settings: HOP-62, 48 h, read-out: Activity
[17] = system: NCI-H226; experiment: Growth inhibition of human NCI-H226 cells assessed as cell growth at 100 uM incubated for 48 hrs by sulforhodamine B assay relative to control; format: functional; settings: NCI-H226, 48 h, read-out: Activity
[18] = system: UO-31; experiment: Growth inhibition of human UO31 cells assessed as cell growth at 0.01 uM incubated for 48 hrs by sulforhodamine B assay relative to control; format: functional; settings: UO-31, 48 h, read-out: Activity
[19] = system: SF-268; experiment: Growth inhibition of human SF268 cells incubated for 48 hrs by sulforhodamine B assay; format: functional, cell-based; settings: SF-268, 48 h
[20] = system: BT-549; experiment: Growth inhibition of human BT549 cells assessed as cell growth at 0.01 uM incubated for 48 hrs by sulforhodamine B assay relative to control; format: functional; settings: BT-549, 48 h, read-out: Activity
[21] = system: TK-10; experiment: Growth inhibition of human TK10 cells assessed as cell growth at 10 uM incubated for 48 hrs by sulforhodamine B assay relative to control; format: functional; settings: TK-10, 48 h, read-out: Activity
[22] = system: RXF 393; experiment: Growth inhibition of human RXF393 cells assessed as cell growth at 1 uM incubated for 48 hrs by sulforhodamine B assay relative to control; format: functional; settings: RXF 393, 48 h, read-out: Activity
[23] = system: HT-29; experiment: Growth inhibition of human HT-29 cells assessed as cell growth at 10 uM incubated for 48 hrs by sulforhodamine B assay relative to control; format: functional; settings: HT-29, 48 h, read-out: Activity
[24] = system: OVCAR-8; experiment: Growth inhibition of human OVCAR8 cells assessed as cell growth at 100 uM incubated for 48 hrs by sulforhodamine B assay relative to control; format: functional; settings: OVCAR-8, 48 h, read-out: Activity
[25] = system: COLO 205; experiment: Growth inhibition of human COLO205 cells assessed as cell growth at 0.1 uM incubated for 48 hrs by sulforhodamine B assay relative to control; format: functional; settings: COLO 205, 48 h, read-out: Activity
[26] = system: DU-145; experiment: Growth inhibition of human DU145 cells assessed as cell growth at 100 uM incubated for 48 hrs by sulforhodamine B assay relative to control; format: functional; settings: DU-145, 48 h, read-out: Activity
[27] = system: SK-MEL-5; experiment: Growth inhibition of human SK-MEL-5 cells assessed as cell growth at 1 uM incubated for 48 hrs by sulforhodamine B assay relative to control; format: functional; settings: SK-MEL-5, 48 h, read-out: Activity
[28] = system: OVCAR-5; experiment: Growth inhibition of human OVCAR5 cells assessed as cell growth at 1 uM incubated for 48 hrs by sulforhodamine B assay relative to control; format: functional; settings: OVCAR-5, 48 h, read-out: Activity
[29] = system: SN12C; experiment: Growth inhibition of human SN12C cells assessed as cell growth at 100 uM incubated for 48 hrs by sulforhodamine B assay relative to control; format: functional; settings: read-out: Activity
[30] = system: COLO 205; experiment: Growth inhibition of human COLO205 cells assessed as cell growth at 100 uM incubated for 48 hrs by sulforhodamine B assay relative to control; format: functional; settings: COLO 205, 48 h, read-out: Activity
[31] = system: HCC 2998; experiment: Growth inhibition of human HCC2998 cells assessed as cell growth at 0.1 uM incubated for 48 hrs by sulforhodamine B assay relative to control; format: functional; settings: HCC 2998, 48 h, read-out: Activity
[32] = system: HL-60(TB); experiment: Growth inhibition of human HL-60(TB) cells assessed as cell growth at 1 uM incubated for 48 hrs by sulforhodamine B assay relative to control; format: functional; settings: HL-60, 48 h, read-out: Activity
[33] = read-out: LC50 (the source's name)
[34] = read-out: pLC50 (the source's name) (converted)

COc1cc(Cl)cc(-c2nn(-c3cccc(NC(=O)Nc4ccc(Cl)c(C(F)(F)F)c4)c3)cc2-c2ccncc2)c1
growth at 0.01 µM [1]: 97%
growth at 0.1 µM [2]: 59%
GI50 ([3]; read-out: GI50): 0.615 µM
CC50 [3, 33]: > 100 µM
TGI ([3]; read-out: TGI): 94.3 µM
GI50 ([3]; read-out: pGI50 (converted)): 0.813 µM
CC50 [3, 34]: > 100 µM
TGI ([3]; read-out: pTGI (converted)): 10.2 µM
growth at 1 µM [4]: 65%
growth at 0.1 µM [5]: 93%
growth at 1 µM [6]: 66%
GI50 ([7]; read-out: GI50): 2.91 µM
CC50 [7, 33]: 4.41 µM
TGI ([7]; read-out: TGI): 90.2 µM
GI50 ([7]; read-out: pGI50 (converted)): 2.88 µM
CC50 [7, 34]: 43.7 µM
TGI ([7]; read-out: pTGI (converted)): 9.12 µM
growth at 1 µM [8]: 84%
growth at 0.1 µM [9]: 96%
growth at 1 µM [10]: 97%
growth at 0.01 µM [11]: 91%
growth at 1 µM [12]: 33%
growth at 1 µM [13]: 80%
growth at 1 µM [14]: 100%
growth at 0.1 µM [15]: 98%
growth at 0.1 µM [16]: 104%
growth at 100 µM [17]: -29%
growth at 0.01 µM [18]: 91%
GI50 ([19]; read-out: GI50): 2.55 µM
CC50 [19, 33]: 7.96 µM
TGI ([19]; read-out: TGI): 12.1 µM
GI50 ([19]; read-out: pGI50 (converted)): 2.63 µM
CC50 [19, 34]: 79.4 µM
TGI ([19]; read-out: pTGI (converted)): 12 µM
growth at 0.01 µM [20]: 92%
growth at 10 µM [21]: 37.5%
growth at 1 µM [22]: 78%
growth at 10 µM [23]: 5.57%
growth at 100 µM [24]: -33%
growth at 0.1 µM [25]: 99%
growth at 100 µM [26]: -71%
growth at 1 µM [27]: 83%
growth at 1 µM [28]: 81%
growth at 100 µM [29]: -43%
growth at 100 µM [30]: -79%
growth at 0.1 µM [31]: 94%
growth at 1 µM [32]: 72%

COc1cc(Cl)cc(-c2nn(-c3cccc(NC(=O)Nc4cc(C(F)(F)F)cc(C(F)(F)F)c4)c3)cc2-c2ccncc2)c1
growth at 0.01 µM [1]: 87%
growth at 0.1 µM [2]: 69%
IC50 [3]: 0.42 µM
GI50 ([3]; read-out: GI50): 0.42 µM
TGI ([3]; read-out: TGI): 4.75 µM
GI50 ([3]; read-out: pGI50 (converted)): 0.417 µM
CC50 [3, 34]: 61.7 µM
TGI ([3]; read-out: pTGI (converted)): 4.79 µM
growth at 1 µM [4]: 25%
growth at 0.1 µM [5]: 91%
growth at 1 µM [6]: 48%
IC50 [7]: 0.62 µM
GI50 ([7]; read-out: GI50): 0.622 µM
TGI ([7]; read-out: TGI): 4.95 µM
GI50 ([7]; read-out: pGI50 (converted)): 0.617 µM
CC50 [7, 34]: 42.7 µM
TGI ([7]; read-out: pTGI (converted)): 5.01 µM
growth at 1 µM [8]: 40%
growth at 0.1 µM [9]: 105%
growth at 1 µM [10]: 38%
growth at 0.01 µM [11]: 96%
growth at 1 µM [12]: 31%
growth at 1 µM [13]: 24%
growth at 1 µM [14]: 43%
growth at 0.1 µM [15]: 95%
growth at 0.1 µM [16]: 93%
growth at 100 µM [17]: -47%
growth at 0.01 µM [18]: 79%
IC50 [19]: 0.62 µM
GI50 ([19]; read-out: GI50): 0.618 µM
CC50 [19, 33]: 0.0307 µM
TGI ([19]; read-out: TGI): 3.25 µM
GI50 ([19]; read-out: pGI50 (converted)): 0.617 µM
CC50 [19, 34]: 30.9 µM
TGI ([19]; read-out: pTGI (converted)): 3.24 µM
growth at 0.01 µM [20]: 94%
growth at 10 µM [21]: 30.3%
growth at 1 µM [22]: 50%
growth at 10 µM [23]: 3.93%
growth at 100 µM [24]: -62%
growth at 0.1 µM [25]: 98%
growth at 100 µM [26]: -58%
growth at 1 µM [27]: 50%
growth at 1 µM [28]: 59%
growth at 100 µM [29]: -61%
growth at 100 µM [30]: -68%
growth at 0.1 µM [31]: 105%
growth at 1 µM [32]: 14%

Source: ChEMBL document CHEMBL4308841, “Synthesis, in vitro antiproliferative activity, and kinase inhibitory effects of pyrazole-containing diarylureas and diarylamides” (Eur J Med Chem, 2018)
